The target of assay [1] is T1, AHR (Homo sapiens, UniProt P35869).
T1 construct: U87 MG glioblastoma cells (ATCC #HTB-14) endogenously expressing AHR; endogenous in cells; host or cells: U87 MG glioblastoma cells (ATCC #HTB-14)
T1 sequence (P35869 11-848): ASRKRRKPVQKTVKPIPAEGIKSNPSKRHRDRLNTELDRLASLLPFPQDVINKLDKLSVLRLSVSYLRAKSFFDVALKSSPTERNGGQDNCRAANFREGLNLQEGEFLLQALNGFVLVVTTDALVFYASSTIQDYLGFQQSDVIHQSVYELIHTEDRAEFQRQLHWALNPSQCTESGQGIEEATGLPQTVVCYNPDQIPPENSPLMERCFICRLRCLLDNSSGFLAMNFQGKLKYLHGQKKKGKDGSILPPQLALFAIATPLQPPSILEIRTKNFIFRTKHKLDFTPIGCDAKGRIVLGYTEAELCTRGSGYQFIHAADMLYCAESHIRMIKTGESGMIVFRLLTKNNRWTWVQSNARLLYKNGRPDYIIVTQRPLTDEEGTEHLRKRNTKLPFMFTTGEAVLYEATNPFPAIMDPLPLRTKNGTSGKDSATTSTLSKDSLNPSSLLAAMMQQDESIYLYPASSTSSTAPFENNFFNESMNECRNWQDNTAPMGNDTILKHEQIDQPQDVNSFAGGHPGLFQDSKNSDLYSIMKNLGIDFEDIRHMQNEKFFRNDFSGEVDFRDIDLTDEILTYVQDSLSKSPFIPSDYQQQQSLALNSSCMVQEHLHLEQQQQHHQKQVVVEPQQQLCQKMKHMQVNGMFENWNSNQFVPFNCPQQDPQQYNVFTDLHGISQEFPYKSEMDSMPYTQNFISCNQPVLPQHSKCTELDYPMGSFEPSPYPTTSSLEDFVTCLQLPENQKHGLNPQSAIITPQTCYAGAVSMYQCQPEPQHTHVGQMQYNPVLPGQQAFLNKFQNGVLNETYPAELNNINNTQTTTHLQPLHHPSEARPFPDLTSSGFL
Briefly: In vitro assay 1: antagonism in human cell line (AHR transactivation, firefly luciferase reporter, kynurenic acid prestimulated). The class given is cell-based. Conditions: AHR Antagonism Human IC50 [M]. An outline of the steps: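 U87 MG glioblastoma cells with endogenous AHR, stably carrying a DRE-driven firefly luciferase reporter and constitutive Renilla reporter, prestimulated with kynurenic acid before compound addition. Firefly and Renilla read by dual luciferase; Renilla flags toxicity; normalized to controls (150 μM kynurenic acid + 5 μM staurosporine as full inhibition); repeat values averaged or median.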
A general note: Reporter assays use an easily measured gene product as a stand-in for the process of interest.

Assay [2] deals with T2, AHR (Mus musculus, UniProt P30561).
T2 sequence (P30561 1-848 P471L/N533S/M589L): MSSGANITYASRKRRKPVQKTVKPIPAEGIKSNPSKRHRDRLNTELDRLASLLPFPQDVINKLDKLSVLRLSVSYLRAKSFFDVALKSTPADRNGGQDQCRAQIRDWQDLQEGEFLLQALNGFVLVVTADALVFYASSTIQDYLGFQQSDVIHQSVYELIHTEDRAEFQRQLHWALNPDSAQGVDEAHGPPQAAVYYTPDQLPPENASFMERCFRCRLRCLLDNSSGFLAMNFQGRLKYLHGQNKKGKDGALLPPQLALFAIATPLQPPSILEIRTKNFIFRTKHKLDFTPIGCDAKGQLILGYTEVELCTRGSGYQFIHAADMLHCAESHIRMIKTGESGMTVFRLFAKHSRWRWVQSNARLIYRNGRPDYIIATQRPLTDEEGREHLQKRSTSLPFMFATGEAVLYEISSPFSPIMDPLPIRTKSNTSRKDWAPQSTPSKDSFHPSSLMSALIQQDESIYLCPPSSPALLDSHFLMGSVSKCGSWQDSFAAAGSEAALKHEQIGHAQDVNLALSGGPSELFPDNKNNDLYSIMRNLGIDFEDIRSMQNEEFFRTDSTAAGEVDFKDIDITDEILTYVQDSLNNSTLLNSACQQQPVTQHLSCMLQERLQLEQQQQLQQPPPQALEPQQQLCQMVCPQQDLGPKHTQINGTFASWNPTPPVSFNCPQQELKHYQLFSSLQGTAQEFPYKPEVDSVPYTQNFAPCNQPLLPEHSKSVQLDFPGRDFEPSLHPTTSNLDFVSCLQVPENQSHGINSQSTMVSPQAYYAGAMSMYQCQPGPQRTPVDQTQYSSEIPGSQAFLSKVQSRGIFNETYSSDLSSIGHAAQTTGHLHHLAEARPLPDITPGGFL
As to the kind of experiment: In vitro assay 3: antagonism in mouse cell line (AHR transactivation, firefly luciferase reporter, kynurenic acid prestimulated). It counts as cell-based. An outline of the steps:
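Mouse cells stably carrying a DRE-driven, AHR-inducible firefly luciferase reporter were prestimulated with the endogenous agonist kynurenic acid before compound addition. Luciferase activity was measured by luminescence and normalized to positive and negative controls, with cells lacking kynurenic acid serving as full-inhibition control. Repeat tests are reported as mean or median.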

Where [3] appears, read: mouse Hepa 1c1c7 cells, 200 μM kynurenic acid, 20 hours, read-out: AHR Antagonism Mouse IC50.
Setting [4] is: Hepa 1c1c7 cells, 200 μM kynurenic acid, 20 hours, firefly luciferase reporter, read-out: AHR Antagonism Mouse IC50.
Where [5] appears, read: read-out: AHR Antagonism Mouse IC50, mouse Hepa 1c1c7 cells, 200 μM kynurenic acid, 20 hours.

Molecules are shown by their SMILES. Where two headings read alike, the source gives them in different places.

What is called IC50 is the concentration that inhibits the measured activity by half. As for `COc1ccc(-c2nc3c4ccccc4nc(NC4CNCCNC4=O)n3n2)cc1` (single isomer, unassigned) [Example 35, 6-{[2-(4-methoxyphenyl)[1,2,4]triazolo[1,5-c]quinazolin-5-yl]amino}-1,4-diazepan-5-one], the figures for the IC50 against AHR [1] and on AHR [2] (setting [3]) were 1.55e-06 M and 60.4 nM, respectively.

Consider `COc1ccc(-c2nc3c4cccc(Br)c4nc(N[C@H](C)C(=O)N4C[C@@H]5C[C@H]4CN5C)n3n2)cc1` [Example 901, (2R)-2-{[7-bromo-2-(4-methoxyphenyl)[1,2,4]triazolo[1,5-c]quinazolin-5-yl]amino}-1-[(1S,4S)-5-methyl-2,5-diazabicyclo[2.2.1]heptan-2-yl]propan-1-one], for which the IC50 was found to be 2.88e-09 M at AHR [1] (firefly luciferase reporter) and 4.79 nM at AHR [2] (setting [4]).

Consider `CNC(=O)[C@H](C)Nc1nc2ccccc2c2nc(-c3cccc(OC)c3)nn12` [Example 102, N^2-[2-(3-methoxyphenyl)[1,2,4]triazolo[1,5-c]quinazolin-5-yl]-N-methyl-L-alaninamide], for which the IC50 is 6.01e-07 M on AHR [1] and 246 nM on AHR [2] (setting [3]).

Turning to `O=C1NCCCC[C@H]1Nc1nc2c(C(F)(F)F)cccc2c2nc(-c3cn(C4CC4)nc3C(F)F)nn12` [Example 743, (3R)-3-({2-[1-cyclopropyl-3-(difluoromethyl)-1H-pyrazol-4-yl]-7-(trifluoromethyl)[1,2,4]triazolo[1,5-c]quinazolin-5-yl}amino)azepan-2-one], the IC50 came out at 1.26e-09 M against AHR [1] and 1.73 nM on AHR [2] (setting [3]).

As to `O=C1NCCCC[C@@H]1Nc1nc2c(Br)cccc2c2nc(-c3ccc(Cl)cc3OC(F)(F)F)nn12` [Example 572, (3S)-3-({7-bromo-2-[4-chloro-2-(trifluoromethoxy)phenyl][1,2,4]triazolo[1,5-c]quinazolin-5-yl}amino)azepan-2-one], the IC50 at AHR [1] was > 2e-05 M; on AHR [2] (setting [3]), 131 nM.

As for `COc1cccc(-c2nc3c4ccccc4nc(N[C@H](C)C(=O)NC(C)C)n3n2)c1` [Example 105, N^2-[2-(3-methoxyphenyl)[1,2,4]triazolo[1,5-c]quinazolin-5-yl]-N-propan-2-yl-D-alaninamide], the IC50 came to 8.86e-09 M against AHR [1] and 7.35 nM on AHR [2] (setting [3]).

With `COc1ccc(-c2nc3c4ccccc4nc(N[C@H]4CCNC4=O)n3n2)cc1` [Example 40, (3S)-3-{[2-(4-methoxyphenyl)[1,2,4]triazolo[1,5-c]quinazolin-5-yl]amino}pyrrolidin-2-one], the IC50 turned out to be 2.08e-08 M at AHR [1] and 380 nM at AHR [2] (setting [3]).

For `O=C1NCCCC[C@H]1Nc1nc2c(Br)cccc2c2nc(-c3cn[nH]c3)nn12` [Example 579, (3R)-3-{[7-bromo-2-(1H-pyrazol-4-yl)[1,2,4]triazolo[1,5-c]quinazolin-5-yl]amino}azepan-2-one], the IC50 against AHR [1] came out at 1.13e-08 M; at AHR [2] (setting [3]), 68.1 nM.

Take `O=C1NCCCC[C@H]1Nc1nc2ccccc2c2nc(-c3ccccc3Br)nn12` [Example 452, (3R)-3-{[2-(2-bromophenyl)[1,2,4]triazolo[1,5-c]quinazolin-5-yl]amino}azepan-2-one]: the IC50 against AHR [1] was 3.98e-09 M; at AHR [2] (setting [3]), 3.35 nM.

Turning to `COc1ccc(-c2nc3c4ccccc4nc(N[C@@H]4CCCCNC4=O)n3n2)c(C(F)(F)F)c1` [Example 512, (3R)-3-({2-[4-methoxy-2-(trifluoromethyl)phenyl][1,2,4]triazolo[1,5-c]quinazolin-5-yl}amino)azepan-2-one], the IC50 is 1.04e-08 M against AHR [1] and 2.48 nM at AHR [2] (setting [3]).

For the compound `CC[C@H](Nc1nc2ccccc2c2nc(-c3ccccc3OC(F)F)nn12)C(N)=O` [Example 475, (2S)-2-({2-[2-(difluoromethoxy)phenyl][1,2,4]triazolo[1,5-c]quinazolin-5-yl}amino)butanamaide], the IC50 against AHR [1] is > 2e-05 M; on AHR [2] (setting [5]), 71.7 nM.

With `CCCCNC(=O)[C@H](C)Nc1nc2ccccc2c2nc(-c3ccc(Cl)cc3OC(F)(F)F)nn12` [Example 521, N-butyl-N^2-{2-[4-chloro-2-(trifluoromethoxy)phenyl][1,2,4]triazolo[1,5-c]quinazolin-5-yl}alaninamide], the IC50 at AHR [1] is 2.04e-08 M; on AHR [2] (setting [3]) it was 12.2 nM.

`O=C1NCC[C@H]1Nc1nc2ccccc2c2nc(-c3ccc(Cl)cc3OC(F)F)nn12` [Example 528, (3R)-3-({2-[4-chloro-2-(difluoromethoxy)phenyl][1,2,4]triazolo[1,5-c]quinazolin-5-yl}amino)pyrrolidin-2-one]: the figures for the IC50 against AHR [1] and on AHR [2] (setting [3]) were 9.3e-09 M and 6.94 nM, respectively.

As to `CS(=N)(=O)c1ccccc1-c1nc2c3ccccc3nc(N[C@@H]3CCCCNC3=O)n2n1` (stereo partly drawn) [Example 650, (3R)-3-({2-[2-(S-methylsulfonimidoyl)phenyl][1,2,4]triazolo[1,5-c]quinazolin-5-yl}amino)azepan-2-one], the IC50 against AHR [1] is 1.1e-07 M; on AHR [2] (setting [5]) it was 67.1 nM.

For `O=C1NCCCC[C@H]1Nc1nc2c(F)cccc2c2nc(-c3ccncc3)nn12` [Example 552, (3R)-3-{[7-fluoro-2-(pyridin-4-yl)[1,2,4]triazolo[1,5-c]quinazolin-5-yl]amino}azepan-2-one], the results for the IC50 against AHR [1] and at AHR [2] (setting [3]) were 1.28e-07 M and 230 nM, respectively.

As for `Cn1cc(-c2nc3c4cccc(Br)c4nc(N[C@H]4CSCCNC4=O)n3n2)cn1` [Example 841, (6R)-6-{[7-bromo-2-(1-methyl-1H-pyrazol-4-yl)[1,2,4]triazolo[1,5-c]quinazolin-5-yl]amino}-1,4-thiazepan-5-one], the figures for the IC50 on AHR [1] (firefly luciferase reporter) and at AHR [2] (setting [4]) were 1.82e-09 M and 3.01 nM, respectively.

For `O=C1NCCCC[C@H]1Nc1nc2ccccc2c2nc(-c3cccc(C(F)(F)F)n3)nn12` [Example 370, (3R)-3-({2-[6-(trifluoromethyl)pyridin-2-yl][1,2,4]triazolo[1,5-c]quinazolin-5-yl}amino)azepan-2-one], the results for the IC50 against AHR [1] and at AHR [2] (setting [3]) were 5.45e-08 M and 6.38 nM, respectively.

As to `COc1ccc(-c2nc3c4ccc(F)cc4nc(N[C@@H]4CNCCNC4=O)n3n2)cc1` [Example 276, (6R)-6-{[8-fluoro-2-(4-methoxyphenyl)[1,2,4]triazolo[1,5-c]quinazolin-5-yl]amino}-1,4-diazepan-5-one], the IC50 on AHR [1] was found to be 1.45e-08 M; at AHR [2] (setting [3]), 16.4 nM.

Take `CCn1cc(-c2nc3c4cccc(OC)c4nc(N[C@@H]4CCCCNC4=O)n3n2)cn1` [Example 754, (3R)-3-{[2-(1-ethyl-1H-pyrazol-4-yl)-7-methoxy[1,2,4]triazolo[1,5-c]quinazolin-5-yl]amino}azepan-2-one]: the IC50 on AHR [1] is 7.97e-08 M; on AHR [2] (setting [3]) it was 292 nM.

`COc1ccc(-c2nc3c4cc(Br)ccc4nc(N[C@@H]4CCCCNC4=O)n3n2)cc1` [Example 242, (3R)-3-{[9-bromo-2-(4-methoxypheny)[1,2,4]triazolo[1,5-c]quinazolin-5-yl]amino}azepan-2-one]: the concentration for half-maximal inhibition (IC50) amounted to 3.06e-09 M on AHR [1] and 3.02 nM on AHR [2] (setting [3]).

The values above are taken from patent publication US20230113037A1 (Bayer Aktiengesellschaft, priority 2019, published 2023).
